ChEMBL document CHEMBL3861982, “Three new alkaloids from Veratrum grandiflorum Loes with inhibition activities on Hedgehog pathway” (Bioorg Med Chem Lett, 2016)

Test: Inhibition of hedgehog signaling pathway in mouse Shh Light2 cells assessed as inhibition of sonic hedgehog-induced GLI1-mediated transcriptional activity measured after 30 hrs by dual luciferase reporter gene assay
Assay type: cell-based
Conditions: Shh Light2, 30 h

## C[C@H]1CC[C@@H]2[C@@H](C)[C@H]3[C@H](C[C@H]4[C@@H]5CC=C6C[C@@H](O)CC[C@]6(C)[C@H]5CC[C@]34C)N2C1
  IC50: > 25000 nM

## CC(=O)O[C@@H]1C[C@H]2[C@@H](CC=C3C[C@@H](O[C@@H]4O[C@H](CO)[C@@H](O)[C@H](O)[C@H]4O)CC[C@@]32C)[C@@H]2CC[C@H]([C@H](C)C3=NC[C@H](C)CC3=O)[C@@]12C
  IC50: 1110 nM

## CC(=O)O[C@H]1C[C@H]2[C@@H]3CC=C4C[C@@H](O[C@@H]5O[C@H](CO)[C@@H](O)[C@H](O)[C@H]5O)CC[C@]4(C)[C@H]3CC[C@]2(C)[C@H]1[C@H](C)C1=NC[C@H](C)CC1
  IC50: > 25000 nM

## Cc1c([C@H](C)[C@H]2CC[C@H](C)CN2)ccc2c1C[C@H]1[C@H]2CC=C2C[C@@H](O)CC[C@@]21C
  IC50: 630 nM

## C/C=C(/C)C(=O)O[C@H]1CC[C@@]2(C)[C@@H]3CC[C@H]4[C@]5(O)[C@@H](O)[C@H](O)[C@H]6[C@@H](CN7C[C@@H](C)CC[C@H]7[C@@]6(C)O)[C@@H]5C[C@@]42O[C@@]13O
  IC50: > 25000 nM

## CC(=O)O[C@@H]1C[C@H]2[C@@H](CC=C3C[C@@H](O)CC[C@@]32C)[C@@H]2CC[C@H]([C@@](C)(O)C3=NC[C@H](C)CC3)[C@@]12C
  IC50: 3110 nM

## CC(=O)O[C@@H]1C[C@H]2[C@@H](CC=C3C[C@@H](O[C@@H]4O[C@H](CO)[C@@H](O)[C@H](O)[C@H]4O)CC[C@@]32C)[C@@H]2CC[C@H]([C@@](C)(O)C3=NC[C@H](C)CC3)[C@@]12C
  IC50: 2780 nM

## CC1=C2C[C@H]3[C@@H](CC=C4C[C@@H](O)CC[C@@]43C)[C@@H]2CC[C@]12O[C@@H]1C[C@H](C)CN[C@H]1[C@H]2C [CYCLOPAMINE]
  IC50: 74.1 nM
